These results are taken from US9113629B2, “4-amino-6-(4-substituted-phenyl)-picolinates and 6-amino-2-(4-substituted-phenyl)-pyrimidine-4-carboxylates and their use as herbicides” (DOW AGROSCIENCES LLC, priority 2013, dated 2015).

Holding throughout (assay type): in vivo
Assay [1] concerns PAPRH: common poppy (Papaver rhoeas). In words: Post-emergent Test III, herbicidal activity in wheat and barley. A digest of the protocol: (§1)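 GR20, GR50, GR80 and GR90 come from probit analysis of visual injury scores (0 = none, 100 = complete kill) taken 21 d after treatment. Foliar application was by track sprayer delivering 187 L/ha at five rates, from high down to 1/16×, onto greenhouse plants at the 2–3 leaf stage, with solvent-blank controls.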

The subject of assay [2] is PHAMI: lesser canary grass (Phalaris minor). Described as above. A digest of the protocol:
as §1

For assay [3], the system named is VIOSS: wild pansy (Viola tricolor), field violet (Viola arvensis). The description is as above. Conditions: 21 days after application. A digest of the protocol: as §1
Assay [4] relates to SASKR: Russian thistle (Salsola iberica). The description is as above. Conditions: 21 days after application. A digest of the protocol:
as §1

A further assay relates to LAMSS. In words: Pre-emergent Test III, preemergent activity in wheat and barley. The procedure: Pre-emergent Test III. Seeds of test species were planted into square plastic pots (10 cm wide) containing sandy loam soil. After planting, all pots were sub-irrigated 16 h prior to compound application. A weighed amount, determined by the highest rate to be tested, of each test compound was placed in a 25 mL glass vial and was dissolved in 4 mL of a 97:3 v/v mixture of acetone and DMSO to obtain concentrated stock solutions. […] The concentrated stock solutions obtained were diluted with 20 mL of an aqueous mixture containing water and 0.02% w/v (weight/volume) of Triton X-155 to obtain spray solutions containing the highest application rates. Additional application rates were obtained by serial dilution of 12 mL of the high rate solution into a solution containing 2 mL of 97:3 v/v mixture of acetone and DMSO and 10 mL of an aqueous mixture containing water and 0.02% w/v (weight/volume) of Triton X-155 to obtain 1⁄2×, 1⁄4×, 1⁄8× and 1/16× rates of the high rate. Compound requirements are based upon a 12 mL application volume at a rate of 187 liters per hectare (L/ha). Formulated compounds were applied to the soil surface with an overhead Mandel track sprayer equipped with […] nozzles calibrated to deliver 187 L/ha over an application area of 0.503 square meters. Control pots were sprayed in the same manner with the solvent blank. The treated pots and control pots were placed in a greenhouse as described above and watered through surface irrigation. After 21 d, the condition of the test pots as compared with that of the untreated pots was determined visually and scored on a scale of 0 to 100 percent where 0 corresponds to no herbicidal effect and 100 corresponds to plant death or lack of emergence from the soil. By applying the well-accepted probit analysis as described by J. Berkson in Journal of the American Statistical Society, 48, 565 (1953) and by D. Finney in “Probit Analysis” Cambridge University Press (1952), the above data can be used to calculate GR20, GR50, GR80 and GR90 values, which are defined as growth reduction factors that correspond to the effective dose of herbicide required to kill or control 20 percent, 50 percent, 80 percent or 90 percent, respectively, of a target plant.

[5] abbreviates: probit analysis, dose for growth reduction of 50 percent, 21 days after application.
[6] abbreviates: probit analysis, dose for growth reduction of 80 percent, 21 days after application.
Setting [7] is: probit analysis, dose for 50 percent growth reduction.
The mark [8] stands for this setting: probit analysis, dose for 80 percent growth reduction.

Take `COC(=O)c1nc(-c2ccc(Cl)c(F)c2)c(F)c(N)c1Cl` [Compound 216]: the pest or weed control at 35 g/ha was 95 to 100% in assay [1] (Papaver rhoeas, post-emergence, 504 h, 35 g ai/ha, read-out: Visual Growth Reduction (%) 21 Days After Application PAPRH) and 0 to 29% in assay [2] (Phalaris minor, post-emergence, 504 h, 35 g ai/ha, read-out: Visual Growth Reduction (%) 21 Days After Application PHAMI). Moreover, the pest or weed control at 70 g/ha fell in the range of 95 to 100% in assay [1] (Papaver rhoeas, post-emergence, 504 h, 70 g ai/ha, read-out: Visual Growth Reduction (%) 21 Days After Application PAPRH) and 30 to 44% in assay [2] (Phalaris minor, post-emergence, 504 h, 70 g ai/ha, read-out: Visual Growth Reduction (%) 21 Days After Application PHAMI). In addition, the pest or weed control at 140 g/ha in assay [1] (Papaver rhoeas, post-emergence, 504 h, 140 g ai/ha, read-out: Visual Growth Reduction (%) 21 Days After Application PAPRH) was 95 to 100%; in assay [2] (Phalaris minor, post-emergence, 504 h, 140 g ai/ha, read-out: Visual Growth Reduction (%) 21 Days After Application PHAMI), 75 to 84%. Further, the “GR50 PAPRH” value in assay [1] (setting [5]) was 1 g ai/ha. Besides, in assay [1] (setting [6]), the “GR80 PAPRH” value is reported as 1 g ai/ha. The “GR50 PHAMI” value in assay [2] (setting [5]) is over 140 g ai/ha. The “GR80 PHAMI” value in assay [2] (setting [6]) is on record as over 140 g ai/ha.

Consider `COC(=O)c1nc(-c2ccc(Br)c(F)c2)c(F)c(N)c1Cl` [Compound 49], for which the pest or weed control at 35 g/ha in assay [3] (Viola tricolor, post-emergence, 504 h, 35 g ai/ha, read-out: Visual Gorowth Reduction (%) 21 days After Application VIOSS) was 95 to 100%; in assay [4] (Salsola tragus, post-emergence, 504 h, 35 g ai/ha, read-out: Visual Gorowth Reduction (%) 21 days After Application SASKR), 75 to 84%. In addition, the pest or weed control at 70 g/ha lay in the range of 95 to 100% in assay [3] (Viola tricolor, post-emergence, 504 h, 70 g ai/ha, read-out: Visual Gorowth Reduction (%) 21 days After Application VIOSS) and 85 to 94% in assay [4] (Salsola tragus, post-emergence, 504 h, 70 g ai/ha, read-out: Visual Gorowth Reduction (%) 21 days After Application SASKR). For the same compound, the “GR50 VIOSS” value in assay [3] (setting [7]) is 5 g ai/ha. The “GR80 VIOSS” value in assay [3] (setting [8]) came to 8 g ai/ha. In addition, the “GR50 SASKR” value in assay [4] (setting [7]) was found to be 1 g ai/ha. Besides, the “GR80 SASKR” value in assay [4] (setting [8]) amounted to 30 g ai/ha. Further, the “Visual Growth Reduction (%) 21 Days After Application, LAMSS” value in the assay with LAMSS (35 g ai/ha) and in the assay with LAMSS (70 g ai/ha) was “A (95-100)” each time. Further, the “GR50 LAMSS” value in the assay on LAMSS (21 days after application, dose to kill or control 50%, probit analysis) came to 1 g ai/ha. Also, the “GR80 LAMSS” value in the assay on LAMSS (21 days after application, dose to kill or control 80%, probit analysis) was 3 g ai/ha.
